Measurements: US11554048B2, “System and method for treating meibomian gland dysfunction” (The Schepens Eye Research Institute, Inc., priority 2018, dated 2023)

System: iHMGEC
Experiment: Terminal differentiation of iHMGECs under low oxygen combined with phospholipidosis-inducing drug
Assay type: cell-based, human
Conditions: low oxygen levels combined with drug exposure, 10 μg/ml
Description: This hypoxic effect is associated with a significant rise in the number and size of lysosomes, as well as increased DNase II activity and decreased Lamp-1 expression. These latter changes are consistent with heightened terminal differentiation and holocrine secretion.

## CC[C@H]1OC(=O)[C@H](C)[C@@H](O[C@H]2C[C@@](C)(OC)[C@@H](O)[C@H](C)O2)[C@H](C)[C@@H](O[C@@H]2O[C@H](C)C[C@H](N(C)C)[C@H]2O)[C@](C)(O)C[C@@H](C)CN(C)[C@H](C)[C@@H](O)[C@]1(C)O [azithromycin]
  hypoxic influence on terminal differentiation: further enhanced
